Patent US10059741B2 (priority 2015, dated 2018)
Where two headings read alike, the source gives them in different places. Bridge positions count the residues as written; N and C are the ends. Square brackets hold non-standard residues; d marks the D form. Peptide text beside a SMILES is read from it. R8 = C=CCCCCCC[C@@](C)(N)C(=O)O; S5 = C=CCCC[C@](C)(N)C(=O)O; Nle = CCCC[C@H](N)C(=O)O; Aib = CC(C)(N)C(=O)O

Legend:
[1] = tested on: H3N2 Perth/16/2009; assay: microbe, parasite or virus in culture; format: cell-based, influenza A virus
[2] = in vitro; settings: dog
[3] = tested on: H3N2 Perth/16/2009; assay: microbe, parasite or virus in culture; format: cell-based, influenza A virus; remark: listed apart in the source
[4] = tested on: H1N1 California/07/2009; assay: microbe, parasite or virus in culture; format: cell-based, influenza A virus
[5] = tested on: H1N1 California/07/2009; assay: microbe, parasite or virus in culture; format: cell-based, influenza A virus; remark: listed apart in the source
[6] = read-out: EC50 (μM) H3N2 Perth/16/2009
[7] = CC50 (μM) H1N1 California/07/2009, Cell cytotoxicity (CC), run with H1N1 California/07/2009
[8] = CC50 (μM) H3N2 Perth/16/2009, Cell cytotoxicity (CC), run with H3N2 Perth/16/2009
[9] = CC50, MDCK cells, run with Influenza A H1N1 California/07/2009, Neutral Red
[10] = CC50, MDCK cells, run with Influenza A H1N1 California/07/2009, Visual
[11] = read-out: EC50 (μM) H1N1 California/07/2009
[12] = CC50, run with Influenza A H1N1 California/07/2009, Neutral Red
[13] = CC50, run with Influenza A H1N1 California/07/2009, Visual
[14] = CC50, run with Influenza A H3N2 Perth/16/2006 (so in the source), Neutral Red
[15] = CC50, run with Influenza A H3N2 Perth/16/2006 (so in the source), Visual
[16] = Cytopathic effect/toxicity (Visual), MDCK cells, read-out: EC50 (μM) H3N2 Perth/16/2009
[17] = Influenza A H3N2 Perth/16/2006 (so in the source), Drug Assay Visual, read-out: EC50
[18] = Cytopathic effect/toxicity (Neutral red), MDCK cells, read-out: EC50 (μM) H3N2 Perth/16/2009
[19] = Influenza A H3N2 Perth/16/2006 (so in the source), Drug Assay Neutral Red, read-out: EC50
[20] = Cytopathic effect/toxicity (Visual), MDCK cells, read-out: EC50 (μM) H1N1 California/07/2009
[21] = Influenza A H1N1 California/07/2009, Drug Assay Visual, read-out: EC50
[22] = Cytopathic effect/toxicity (Neutral red), MDCK cells, read-out: EC50 (μM) H1N1 California/07/2009
[23] = Influenza A H1N1 California/07/2009, Drug Assay Neutral Red, read-out: EC50

CCCC[C@H](NC(C)=O)C(=O)N[C@@H](CC(=O)O)C(=O)N[C@H](C(=O)N[C@@H](CC(N)=O)C(=O)N[C@@]1(C)CCCC=CCCC[C@@](C)(C(=O)N[C@@H](CC(C)C)C(=O)N[C@@H](C)C(=O)N[C@H](C(=O)NC(C)(C)C(=O)N[C@@H](C)C(=O)N[C@@H](CCC(N)=O)C(=O)N[C@@H](C)C(=O)N[C@@H](C)C(N)=O)C(C)C)NC(=O)[C@H](CC(C)C)NC(=O)[C@H](CC(C)C)NC(=O)[C@H]([C@@H](C)O)NC1=O)C(C)C [SP-7] (Ac-[Nle]DVN[S5]TLL[S5]LAV[Aib]AQAA-NH2; staple 5-9)
EC50 [1, 6]: 25 to 50 µM | CC50 [2, 7]: > 100 µM | CC50 [2, 8]: > 100 µM | CC50 [2, 9]: > 100 µM | CC50 [2, 10]: > 100 µM | EC50 [3, 6]: 25 to 50 µM | EC50 [4, 11]: 10 to 25 µM | EC50 [5, 11]: 10 to 25 µM

CCCC[C@H](NC(C)=O)C(=O)N[C@@H](CC(=O)O)C(=O)N[C@H](C(=O)N[C@@H](CC(N)=O)C(=O)N[C@@]1(C)CCCC=CCCC[C@@](C)(C(=O)N[C@@H](CC(C)C)C(=O)N[C@@H](C)C(=O)N[C@H](C(=O)NC(C)(C)C(=O)N[C@@H](C)C(=O)N[C@@H](CCC(N)=O)C(=O)N[C@@H](C)C(=O)N[C@H](C)C(N)=O)C(C)C)NC(=O)[C@H](CC(C)C)NC(=O)[C@H](CC(C)C)NC(=O)[C@H]([C@@H](C)O)NC1=O)C(C)C [SP-16] (Ac-[Nle]DVN[S5]TLL[S5]LAV[Aib]AQA[dA]-NH2; staple 5-9)
EC50 [1, 6]: 25 to 50 µM | CC50 [2, 7]: > 100 µM | CC50 [2, 8]: > 100 µM | CC50 [2, 9]: > 100 µM | CC50 [2, 10]: > 100 µM | EC50 [3, 6]: 25 to 50 µM | EC50 [4, 11]: 10 to 25 µM | EC50 [5, 11]: 10 to 25 µM

CCCC[C@H](NC(C)=O)C(=O)N[C@@H](CC(=O)O)C(=O)N[C@H](C(=O)N[C@@H](CC(N)=O)C(=O)N[C@@]1(C)CCCC=CCCC[C@@](C)(C(=O)N[C@@H](CC(C)C)C(=O)N[C@@H](C)C(=O)N[C@H](C(=O)NC(C)(C)C(=O)N[C@@H](C)C(=O)N[C@@H](CCC(N)=O)C(=O)N[C@@H](C)C(=O)N[C@H](C)C(=O)O)C(C)C)NC(=O)[C@H](CC(C)C)NC(=O)[C@H](CC(C)C)NC(=O)[C@H]([C@@H](C)O)NC1=O)C(C)C [SP-17] (Ac-[Nle]DVN[S5]TLL[S5]LAV[Aib]AQA[dA]-OH; staple 5-9)
EC50 [1, 6]: 10 to 25 µM | CC50 [2, 7]: > 100 µM | CC50 [2, 8]: > 100 µM | CC50 [2, 9]: > 100 µM | CC50 [2, 10]: > 100 µM | EC50 [3, 6]: 10 to 25 µM | EC50 [4, 11]: 25 to 50 µM | EC50 [5, 11]: 25 to 50 µM

CCCC[C@H](NC(C)=O)C(=O)N[C@@H](CC(=O)O)C(=O)N[C@H](C(=O)N[C@@H](CC(N)=O)C(=O)N[C@@]1(C)CCCC=CCCC[C@@](C)(C(=O)N[C@@H](CC(C)C)C(=O)N[C@@H](C)C(=O)N[C@H](C(=O)N[C@@H](CCC(N)=O)C(=O)NC(C)(C)C(=O)N[C@@H](CCC(N)=O)C(=O)N[C@@H](C)C(=O)N[C@@H](C)C(N)=O)C(C)C)NC(=O)[C@H](CC(C)C)NC(=O)[C@H](CC(C)C)NC(=O)[C@H]([C@@H](C)O)NC1=O)C(C)C [SP-19] (Ac-[Nle]DVN[S5]TLL[S5]LAVQ[Aib]QAA-NH2; staple 5-9)
EC50 [1, 6]: 1.5 to 10 µM | CC50 [2, 7]: > 100 µM | CC50 [2, 8]: > 100 µM | CC50 [2, 12]: > 100 µM | CC50 [2, 13]: > 100 µM | CC50 [2, 14]: > 100 µM | CC50 [2, 15]: > 100 µM | EC50 [3, 6]: 1.5 to 10 µM | EC50 [4, 11]: 1.5 to 10 µM | EC50 [5, 11]: 1.5 to 10 µM

CCCC[C@H](NC(C)=O)C(=O)N[C@@H](CC(=O)O)C(=O)N[C@H](C(=O)N[C@@H](CC(N)=O)C(=O)N[C@@]1(C)CCCC=CCCC[C@@](C)(C(=O)N[C@@H](CC(C)C)C(=O)N[C@@H](C)C(=O)N[C@H](C(=O)N[C@@H](CCC(N)=O)C(=O)N[C@@H](C)C(=O)N[C@@H](CCC(N)=O)C(=O)NC(C)(C)C(=O)N[C@@H](C)C(N)=O)C(C)C)NC(=O)[C@H](CC(C)C)NC(=O)[C@H](CC(C)C)NC(=O)[C@H]([C@@H](C)O)NC1=O)C(C)C [SP-20] (Ac-[Nle]DVN[S5]TLL[S5]LAVQAQ[Aib]A-NH2; staple 5-9)
EC50 [1, 6]: 1.5 to 10 µM | CC50 [2, 7]: > 100 µM | CC50 [2, 8]: > 100 µM | CC50 [2, 12]: > 100 µM | CC50 [2, 13]: > 100 µM | CC50 [2, 14]: > 100 µM | CC50 [2, 15]: > 100 µM | EC50 [3, 6]: 1.5 to 10 µM | EC50 [4, 11]: 10 to 25 µM | EC50 [5, 11]: 25 to 50 µM

CCCC[C@H](NC(C)=O)C(=O)N[C@@H](CC(=O)O)C(=O)N[C@H](C(=O)N[C@@H](CC(N)=O)C(=O)N[C@@]1(C)CCCC=CCCC[C@@](C)(C(=O)N[C@@H](CC(C)C)C(=O)N[C@@H](C)C(=O)N[C@H](C(=O)N[C@@H](CCC(N)=O)C(=O)N[C@@H](C)C(=O)NC(C)(C)C(=O)N[C@@H](C)C(=O)N[C@@H](C)C(N)=O)C(C)C)NC(=O)[C@H](CC(C)C)NC(=O)[C@H](CC(C)C)NC(=O)[C@H]([C@@H](C)O)NC1=O)C(C)C [SP-23] (Ac-[Nle]DVN[S5]TLL[S5]LAVQA[Aib]AA-NH2; staple 5-9)
EC50 [1, 6]: 1.5 to 10 µM | CC50 [2, 7]: > 100 µM | CC50 [2, 8]: > 100 µM | CC50 [2, 12]: > 100 µM | CC50 [2, 13]: > 100 µM | CC50 [2, 14]: > 100 µM | CC50 [2, 15]: > 100 µM | EC50 [3, 6]: 1.5 to 10 µM | EC50 ([4]; read-out: EC50): 4.3 µM | EC50 [4, 11]: 1.5 to 10 µM | EC50 ([5]; read-out: EC50): 4.2 µM | EC50 [5, 11]: 1.5 to 10 µM

CCCC[C@H](NC(C)=O)C(=O)N[C@@H](CC(=O)O)C(=O)N[C@H](C(=O)N[C@@H](CC(N)=O)C(=O)N[C@]1(C)CCCCCCC=CCCC[C@@](C)(C(=O)N[C@@H](C)C(=O)N[C@@H](C)C(=O)N[C@@H](CCC(N)=O)C(=O)N[C@@H](C)C(=O)N[C@@H](C)C(N)=O)NC(=O)[C@H](C)NC(=O)[C@H](CC(C)C)NC(=O)[C@H](Cc2ccccc2)NC(=O)[C@H](CC(C)C)NC(=O)[C@H](CC(C)C)NC(=O)[C@H]([C@@H](C)O)NC1=O)C(C)C [SP-24] (Ac-[Nle]DVN[R8]TLLFLA[S5]AAQAA-NH2; staple 5-12)
EC50 [1, 16]: 1.5 to 10 µM | EC50 [1, 17]: 2.5 µM | CC50 [2, 7]: > 100 µM | CC50 [2, 8]: > 100 µM | CC50 [2, 12]: > 100 µM | CC50 [2, 13]: > 100 µM | CC50 [2, 14]: > 100 µM | CC50 [2, 15]: > 100 µM | EC50 [3, 18]: 1.5 to 10 µM | EC50 [3, 19]: 3.4 µM | EC50 [4, 20]: 1.5 to 10 µM | EC50 [4, 21]: 4.3 µM | EC50 [5, 22]: 1.5 to 10 µM | EC50 [5, 23]: 6.9 µM

CCCC[C@H](NC(C)=O)C(=O)N[C@@H](CC(=O)O)C(=O)N[C@H](C(=O)N[C@@H](CC(N)=O)C(=O)N[C@]1(C)CCCCCCC=CCCC[C@@](C)(C(=O)N[C@@H](CCC(N)=O)C(=O)N[C@@H](C)C(=O)N[C@@H](CCC(N)=O)C(=O)N[C@@H](C)C(=O)N[C@@H](C)C(N)=O)NC(=O)[C@H](C)NC(=O)[C@H](CC(C)C)NC(=O)[C@H](Cc2ccccc2)NC(=O)[C@H](CC(C)C)NC(=O)[C@H](CC(C)C)NC(=O)[C@H]([C@@H](C)O)NC1=O)C(C)C [SP-26] (Ac-[Nle]DVN[R8]TLLFLA[S5]QAQAA-NH2; staple 5-12)
EC50 [1, 16]: 10 to 25 µM | EC50 [1, 17]: 14 µM | CC50 [2, 7]: > 100 µM | CC50 [2, 8]: > 100 µM | CC50 [2, 12]: > 100 µM | CC50 [2, 13]: > 100 µM | CC50 [2, 14]: > 100 µM | CC50 [2, 15]: > 100 µM | EC50 [3, 18]: 10 to 25 µM | EC50 [3, 19]: 23 µM | EC50 [4, 20]: < 1.5 µM | EC50 [4, 21]: 0.75 µM | EC50 [5, 22]: 1.5 to 10 µM | EC50 [5, 23]: 2.1 µM
